Measurements: PMC7839672, “Effect of the PHY Domain on the Photoisomerization Step of the Forward Pr→Pfr Conversion of a Knotless Phytochrome” (Chemistry (Weinheim an Der Bergstrasse, Germany), 2020)

Target: T1, All2699g1g2 (g1g2) (Nostoc sp. PCC 7120 = FACHB-418, UniProt A0ACD6B963)
T1 construct: gene all2699; GAF1-GAF2 (GAF-PHY) photosensory module of All2699; borders, tags and host not in main text
Test: steady-state absorption, CD and femtosecond transient absorption of the chromophore-bound protein
Type: binding
Conditions: covalent (known biology, not given); chromophore embedded in GAF1 domain; Pr and Pfr states

T1 sequence (A0ACD6B963 1-656 limits assumed): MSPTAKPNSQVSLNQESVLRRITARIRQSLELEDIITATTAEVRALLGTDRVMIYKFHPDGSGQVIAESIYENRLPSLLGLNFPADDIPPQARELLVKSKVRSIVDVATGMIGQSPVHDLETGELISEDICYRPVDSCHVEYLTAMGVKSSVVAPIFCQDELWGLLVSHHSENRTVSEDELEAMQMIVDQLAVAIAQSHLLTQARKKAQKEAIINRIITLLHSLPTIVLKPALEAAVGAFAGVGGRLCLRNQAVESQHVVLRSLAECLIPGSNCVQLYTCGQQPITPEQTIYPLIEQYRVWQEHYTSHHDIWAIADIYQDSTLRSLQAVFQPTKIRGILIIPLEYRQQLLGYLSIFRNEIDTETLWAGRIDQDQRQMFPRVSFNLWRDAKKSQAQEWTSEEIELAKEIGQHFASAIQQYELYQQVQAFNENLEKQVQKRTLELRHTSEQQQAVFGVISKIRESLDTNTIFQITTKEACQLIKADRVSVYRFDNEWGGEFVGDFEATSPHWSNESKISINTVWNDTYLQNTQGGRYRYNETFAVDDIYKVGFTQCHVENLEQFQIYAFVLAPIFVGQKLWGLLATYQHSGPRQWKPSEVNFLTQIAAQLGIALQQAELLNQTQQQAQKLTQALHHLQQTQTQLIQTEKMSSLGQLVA

C/C=C1/C(=C/C2=NC(=C\c3[nH]c(/C=C4\NC(=O)C(CC)=C4C)c(C)c3CCC(=O)O)/C(CCC(=O)O)=C2C)NC(=O)[C@@H]1C [PCB, phycocyanobilin]
steady-state absorption, CD and femtosecond transient absorption of the chromoph: interactions of the PCB chromophore with the “tongue” region of the g2 domain in g1g2
